Data on nine compounds can be found in ChEMBL document CHEMBL1123635, “Angiotensin-converting enzyme inhibitors: perhydro-1,4-thiazepin-5-one derivatives” (J Med Chem, 1987).

In general, IC50 refers to the concentration at which inhibition is half-maximal. Read a low IC50 as higher potency.

This test addresses T1, Angiotensin-converting enzyme (Oryctolagus cuniculus, UniProt P12822).
T1 sequence (P12822 whole entry): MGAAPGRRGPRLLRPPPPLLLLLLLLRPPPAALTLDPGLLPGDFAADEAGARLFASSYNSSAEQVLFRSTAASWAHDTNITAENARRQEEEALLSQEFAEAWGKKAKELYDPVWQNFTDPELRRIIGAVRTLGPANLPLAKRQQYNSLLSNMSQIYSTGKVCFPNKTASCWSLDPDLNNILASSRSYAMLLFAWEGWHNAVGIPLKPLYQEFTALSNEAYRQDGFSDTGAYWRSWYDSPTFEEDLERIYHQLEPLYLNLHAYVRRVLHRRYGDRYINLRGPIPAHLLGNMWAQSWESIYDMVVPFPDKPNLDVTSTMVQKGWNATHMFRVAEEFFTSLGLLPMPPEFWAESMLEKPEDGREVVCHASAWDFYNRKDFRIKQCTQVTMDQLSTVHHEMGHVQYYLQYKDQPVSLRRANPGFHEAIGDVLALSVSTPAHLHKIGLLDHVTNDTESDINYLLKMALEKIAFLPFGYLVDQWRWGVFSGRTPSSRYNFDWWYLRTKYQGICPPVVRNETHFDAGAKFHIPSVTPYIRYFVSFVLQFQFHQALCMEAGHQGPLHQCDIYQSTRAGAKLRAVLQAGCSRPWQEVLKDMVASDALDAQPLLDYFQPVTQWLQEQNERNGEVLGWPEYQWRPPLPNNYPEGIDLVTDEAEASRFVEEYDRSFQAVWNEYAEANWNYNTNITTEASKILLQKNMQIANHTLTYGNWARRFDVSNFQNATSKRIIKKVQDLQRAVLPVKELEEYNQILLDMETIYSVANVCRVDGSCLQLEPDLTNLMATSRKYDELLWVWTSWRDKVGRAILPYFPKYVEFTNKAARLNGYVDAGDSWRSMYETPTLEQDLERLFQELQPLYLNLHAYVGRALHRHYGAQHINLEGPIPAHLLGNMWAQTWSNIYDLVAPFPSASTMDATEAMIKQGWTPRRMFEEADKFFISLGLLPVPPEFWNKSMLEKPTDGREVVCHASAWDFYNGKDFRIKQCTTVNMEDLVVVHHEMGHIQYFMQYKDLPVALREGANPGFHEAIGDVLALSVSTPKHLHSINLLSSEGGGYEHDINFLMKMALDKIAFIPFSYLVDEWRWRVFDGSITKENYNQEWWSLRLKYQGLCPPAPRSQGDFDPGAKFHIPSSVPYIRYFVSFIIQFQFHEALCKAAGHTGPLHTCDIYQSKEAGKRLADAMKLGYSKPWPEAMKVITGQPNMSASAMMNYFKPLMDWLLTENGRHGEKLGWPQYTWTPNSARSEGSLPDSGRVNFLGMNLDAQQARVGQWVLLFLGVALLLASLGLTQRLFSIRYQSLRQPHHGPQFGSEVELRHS
Nature of the test: Inhibitory activity against rabbit lung Angiotensin I converting enzyme with 5 mM hippuryl-histidyl-leucine as substrate.

In turn, `O=C(O)CN1C[C@H](c2ccsc2)SC[C@H](N[C@@H](CCc2ccccc2)C(=O)O)C1=O` showed an IC50 of 86.9 nM.
The value for `O=C(O)CN1C(=O)[C@@H](N[C@@H](CCc2ccccc2)C(=O)O)CSC[C@@H]1c1ccccc1` was 78.2 nM; that for `O=C(O)CN1C[C@@H](c2ccsc2)SC[C@H](N[C@@H](CCc2ccccc2)C(=O)O)C1=O` was 4.1 nM.
The value for `O=C(O)CN1C(=O)[C@@H](N[C@@H](CCc2ccccc2)C(=O)O)CSC[C@H]1c1ccccc1` was 3.4 nM; that for `O=C(O)CN1C(=O)[C@@H](N[C@@H](CCc2ccccc2)C(=O)O)CSCC1c1cccs1` (some centres undefined) was 2.8 nM.
The value for `O=C(O)CN1C[C@@H](c2ccccc2)SC[C@H](N[C@@H](CCc2ccccc2)C(=O)O)C1=O` was 3.7 nM; that for `O=C(O)CN1C[C@H](c2cccs2)SC[C@H](N[C@@H](CCc2ccccc2)C(=O)O)C1=O` was 64.7 nM.
In the case of `O=C(O)CN1C[C@H](c2ccccc2)SC[C@H](N[C@@H](CCc2ccccc2)C(=O)O)C1=O`, the IC50 came out at 35.5 nM.
Then `O=C(O)CN1C[C@@H](c2cccs2)SC[C@H](N[C@@H](CCc2ccccc2)C(=O)O)C1=O` [TEMOCAPRILAT], with 3.6 nM.
